Key:
MAO-B = biological target: T1, MAO-B (Mus musculus, UniProt Q8BW75); experiment: MAO assay (14C PEA substrate) in brains of treated EAE mice; type: in vivo
T1 construct: in the brains of EAE mice; from tissue; host or cells: brain homogenate of ladostigil-treated EAE mice
T1 sequence (Q8BW75 1-520): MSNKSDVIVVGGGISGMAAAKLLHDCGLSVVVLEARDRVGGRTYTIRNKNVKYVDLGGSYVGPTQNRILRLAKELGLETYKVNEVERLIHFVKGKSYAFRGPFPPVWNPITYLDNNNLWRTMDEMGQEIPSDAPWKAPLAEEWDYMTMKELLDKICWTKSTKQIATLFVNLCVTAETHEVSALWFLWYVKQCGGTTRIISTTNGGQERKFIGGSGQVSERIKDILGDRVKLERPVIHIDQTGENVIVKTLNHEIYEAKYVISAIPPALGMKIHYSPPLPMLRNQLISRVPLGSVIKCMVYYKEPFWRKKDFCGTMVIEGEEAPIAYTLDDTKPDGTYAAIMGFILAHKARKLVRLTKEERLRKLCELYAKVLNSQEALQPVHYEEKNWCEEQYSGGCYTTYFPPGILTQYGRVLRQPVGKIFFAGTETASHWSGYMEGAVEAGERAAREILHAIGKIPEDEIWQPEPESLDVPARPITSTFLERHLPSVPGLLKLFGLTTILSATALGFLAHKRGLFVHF
Description: (§1) From the mice of Example 2, the level of MAO (MAO-A and MAO-B) inhibition was determined using ^14C-Labeled 2-phenylethylamine and 5-hydroxytryptamine as substrates.
(§2) The MAO enzyme obtained from a homogenate of rat brain in 0.3M sucrose, which was centrifuged at 600 g for 15 minutes. The supernatant is diluted appropriately in 0.05M phosphate buffer, and pre-incubated with serial dilutions of test compounds for 20 minutes at 37° C. ^14C-Labeled substrates (2-phenylethylamine, hereinafter PEA; 5-hydroxytryptamine, hereinafter 5-HT) are then added, and the incubation continued for a further 20 minutes (PEA), or 30-45 minutes (5-HT). Substrate concentrations used are 50 μM (PEA) and 1 mM (5-HT). In the case of PEA, enzyme concentration is chosen so that not more than 10% of the substrate is metabolized during the course of the reaction. Deaminated products are extracted into toluene-ethyl acetate (1:1 v/v) containing 0.6% (w/v) 2,5-diphenyloxazole (ppo) prior to determination by liquid scintillation counting. Radioactivity in the eluate indicates the production of neutral and acidic metabolites formed as a result of MAO activity. Activity of MAO in the sample is expressed as a percentage of control activity in the absence of inhibitors after subtraction of appropriate blank values. The activity determined using PEA as substrate is referred to as MAO-B, and that determined using 5-HT as MAO-A. Concentrations of inhibitor producing 50% inhibition of substrate metabolism (IC50) are calculated from the inhibition curves.

MAO-A = biological target: T2, MAO-A (Mus musculus, UniProt Q64133); experiment: MAO assay (14C 5-HT substrate) in brains of treated EAE mice; type: in vivo
T2 construct: in the brains of EAE mice; from tissue; host or cells: brain homogenate of ladostigil-treated EAE mice
T2 sequence (Q64133 1-526): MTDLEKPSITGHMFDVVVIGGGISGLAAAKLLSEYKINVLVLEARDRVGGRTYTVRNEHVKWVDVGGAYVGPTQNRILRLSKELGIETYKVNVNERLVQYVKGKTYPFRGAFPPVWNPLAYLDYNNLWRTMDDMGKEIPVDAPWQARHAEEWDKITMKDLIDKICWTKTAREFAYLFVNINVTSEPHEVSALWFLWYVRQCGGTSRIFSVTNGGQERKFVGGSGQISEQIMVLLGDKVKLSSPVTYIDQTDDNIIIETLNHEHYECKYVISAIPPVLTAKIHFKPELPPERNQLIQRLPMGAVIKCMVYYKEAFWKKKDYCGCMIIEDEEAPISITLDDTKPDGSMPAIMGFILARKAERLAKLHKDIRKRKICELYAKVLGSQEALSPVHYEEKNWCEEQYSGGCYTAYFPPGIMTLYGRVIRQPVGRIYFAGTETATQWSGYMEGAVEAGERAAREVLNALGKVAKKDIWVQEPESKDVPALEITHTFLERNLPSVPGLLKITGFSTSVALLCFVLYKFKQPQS
Description: as §1, §2

[1] = mouse, brain of EAE mice, 10.2 mg/kg
[2] = mouse, brain of EAE mice, 25.5 mg/kg
[3] = mouse, brain of EAE mice, 51 mg/kg
[4] = mouse, brain of EAE mice, 70.1 mg/kg

C#CCN[C@@H]1CCc2ccc(OC(=O)N(C)CC)cc21 [Ladostigil, R(+)-6-(N-methyl,N-ethyl-carbamoyloxy)-N′-propargyl-1-aminoindan]
inhibition of MAO-B (MAO-B; 51 and 70.1 mg/kg/day, brain): 81-89% | MAO-B activity dpm (MAO-B; brain of EAE mice, 10.2 mg/kg): 8784 +/− 1047 dpm | MAO-B activity dpm (MAO-B; brain of EAE mice, 25.5 mg/kg): 4258 +/− 467 dpm | MAO-B activity dpm (MAO-B; brain of EAE mice, 51 mg/kg): 2424 +/− 1122 dpm | MAO-B activity dpm (MAO-B; brain of EAE mice, 70.1 mg/kg): 1382 +/− 250 dpm | inhibition at 10.2 mg/kg (MAO-B; [1]): 32% | inhibition at 25.5 mg/kg (MAO-B; [2]): 67% | inhibition at 51 mg/kg (MAO-B; [3]): 81% | inhibition at 70.1 mg/kg (MAO-B; [4]): 89% | MAO-A inhibition (MAO-A; 51 and 70.1 mg/kg/day, brain): 55-60% | MAO-A activity dpm (MAO-A; brain of EAE mice, 10.2 mg/kg): 3702 +/− 119 dpm | MAO-A activity dpm (MAO-A; brain of EAE mice, 25.5 mg/kg): 2672 +/− 128 dpm | MAO-A activity dpm (MAO-A; brain of EAE mice, 51 mg/kg): 1822 +/− 115 dpm | MAO-A activity dpm (MAO-A; brain of EAE mice, 70.1 mg/kg): 1621 +/− 158 dpm | inhibition at 10.2 mg/kg (MAO-A; [1]): 9% | inhibition at 25.5 mg/kg (MAO-A; [2]): 34% | inhibition at 51 mg/kg (MAO-A; [3]): 55% | inhibition at 70.1 mg/kg (MAO-A; [4]): 60%

Source: patent publication US20060276537A1, “Use of ladostigil for the treatment of multiple sclerosis” (priority 2005, published 2006)
